# Results reported in patent publication US10286038B2, “Lysosome membrane protein 2 (LIMP-2) based peptides and related uses” (Northwestern University, priority 2016, dated 2019).
# How the values were obtained:
# [1] = target: bovine serum albumin (BSA) (Bos taurus, UniProt P02769); test: peptide pulldown of albumin (BSA); type: binding; conditions: neutral pH
# Description: (§1) FIG. 6: Characterization of a helical LIMP-2-derived peptide. […] B) In vitro peptide pulldown assay: helix 5 peptides were incubated with recombinant LAMAN and bovine serum albumin (BSA). INPUT and BOUND fractions were loaded onto SDS-PAGE and proteins visualized by coomassie staining (CBB). C) Densitometry of LAMAN and BSA protein bound to peptide, normalized to protein fraction bound to beads only (buffer; n=2-3). D) and E) Activity assay of recombinant (D) GC and (E) LAMAN incubated with different excess molarities (1×-10×) of helix 5 peptide (n=β-5) and LIMP-2 ectodomain (n=4). GC activities were normalized and statistical analyses compared to 0 input of BSA/helix 5 peptide. F) Peptide-pulldown of GC constructs overexpressed in N2a cells with subsequent Western blot analysis (α-hGC) utilizing helix 5 and the 3×D control peptide as a negative binding control. G) Densitometry of GC protein bound to peptides; each construct is normalized to buffer only. H) Live-cell lysosomal GC activity of H4 cells after uptake of helix 5 and 3×D TAT peptides. GC activity was measures every 30 minutes up to 3.5 hours. Cells were treated with DMSO or the “lysosomal inhibitor” bafilomycinA1. […] Lysosomal activity is calculated by subtracting the AUC of DMSO with the AUC of bafilomycinA1 treated samples (n=4). […] GC activity was measured from 16-74 hours and is shown in mU/mg (n=3). […]
# [2] = tested on: endogenous and overexpressed GC in cell lysates; conditions: after incubation with peptide
# Description: The artificial substrates were dissolved in sodium citrate buffer (0.2 M Na-citrate, 0.4% BSA, pH 4.6). All activity assays were performed at acid pH.
# Cell lysate protein (20-200 μg) or recombinant protein (0.2 nmol GC/N370S or LAMAN) was incubated with 100 μL of 10 mM artificial absorbent substrate (4-nitrophenyl β-D-glucopyranoside or 4-nitrophenyl-N-acetyl-β-D-glucosaminide). The samples were incubated at 37° C. for 2 h to measure GC activity or for 5 h to assess LAMAN activity. The reaction was stopped by applying 500-1,000 μL of stop solution (0.4 M glycine, pH 10.4), and the absorbance was measured in a clear 96-well plate at 405 nm in a plate reader (Synergy HT; BioTek). Enzyme activities of cellular lysates were normalized to protein concentration (expressed in milliunits per milligram) and are shown relative to buffer control. Enzyme activities of recombinant proteins are shown as milliunits per milligram or are stated relative to buffer control.
# [3] = tested on: endogenous GC in Cos 7 cells; conditions: biotinylated peptide, neutral pH
# Description: For pulldown of endogenous and overexpressed GC from N2a cell lysates 20 nmol of LIMP-2-derived peptide (Helix 5 and 3×D) was incubated with 50 μl cell lysate at 4° C. overnight. The cells were harvested in EBC-buffer (Table 3). After blocking and equilibration of the streptavidin beads (see above) the cell lysate/peptide mixtures were added to the beads for 30 min. at room temperature. The supernatant was removed. After extensive washing of the beads with NaPhosphate buffer, the bound peptides and proteins were released from the beads by incubation with Laemmli buffer (see above). After centrifugation for 2 min. at 17,000×g the supernatant was removed (BOUND fraction) and subjected to SDS-Page and Western-blotting. An antibody against human GC (α-hGC, for details see Table 4) was used for detection.
# [4] = target: T1, recombinant α-mannosidase (LAMAN) (Homo sapiens, UniProt O00754); test: peptide pulldown of recombinant LAMAN; type: binding; conditions: neutral pH
# T1 construct: purchased Zymenex, Hillerod, DK
# T1 sequence (O00754 50-1011): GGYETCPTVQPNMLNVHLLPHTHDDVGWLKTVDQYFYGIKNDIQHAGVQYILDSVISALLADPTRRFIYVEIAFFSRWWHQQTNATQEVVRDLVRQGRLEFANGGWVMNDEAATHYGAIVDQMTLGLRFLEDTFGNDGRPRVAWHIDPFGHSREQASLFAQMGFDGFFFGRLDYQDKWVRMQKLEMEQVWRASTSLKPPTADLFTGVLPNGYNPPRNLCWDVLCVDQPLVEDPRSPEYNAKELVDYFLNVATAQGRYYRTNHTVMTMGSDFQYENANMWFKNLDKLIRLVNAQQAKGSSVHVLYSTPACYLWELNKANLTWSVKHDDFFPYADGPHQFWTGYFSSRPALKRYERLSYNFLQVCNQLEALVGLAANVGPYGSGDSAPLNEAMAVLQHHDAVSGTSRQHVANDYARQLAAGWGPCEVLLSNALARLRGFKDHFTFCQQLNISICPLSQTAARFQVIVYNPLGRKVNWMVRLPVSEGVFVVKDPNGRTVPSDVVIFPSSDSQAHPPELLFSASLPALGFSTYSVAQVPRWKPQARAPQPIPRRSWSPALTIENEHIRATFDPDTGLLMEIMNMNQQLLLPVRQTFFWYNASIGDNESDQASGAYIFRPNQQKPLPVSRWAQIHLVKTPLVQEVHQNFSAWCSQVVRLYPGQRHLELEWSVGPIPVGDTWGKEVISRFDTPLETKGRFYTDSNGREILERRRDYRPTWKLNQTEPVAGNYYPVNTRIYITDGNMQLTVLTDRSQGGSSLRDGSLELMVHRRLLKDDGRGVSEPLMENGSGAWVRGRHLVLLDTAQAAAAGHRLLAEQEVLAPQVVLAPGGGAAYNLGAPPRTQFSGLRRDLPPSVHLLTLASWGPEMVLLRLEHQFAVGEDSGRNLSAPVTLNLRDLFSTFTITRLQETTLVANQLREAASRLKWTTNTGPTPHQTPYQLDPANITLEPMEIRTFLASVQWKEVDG
# Description: as §1
# [5] = target: T1, recombinant α-mannosidase (LAMAN); test: recombinant LAMAN activity assay; type: biochemical; conditions: 1×-10× molar excess, acid pH
# Description: To determine the enzymatic activity of the recombinant enzymes, lyophilized enzymes were reconstituted in the NaPi buffer described above. The lyophilized samples of wild-type GC (Cerezyme®) and the custom-made recombinant N307S mutant enzyme contain 0.01% polysorbate 80 (Tween 80) (see prescription information for Cerezyme® at the website for Cerezyme®). As indicated in our experiments, the concentration of the detergent is sufficient to support active GC enzyme and to perform the in vitro GC activity assays without adding further detergents to the reaction mix. For enzyme activity assays of recombinant proteins, 0.1-0.2 nmol of GC (Cerezyme®; N370S) and LAMAN were used in the absence or presence of 10× the molar amount of LIMP-2-derived peptides (Table 1) or LIMP-2 ectodomain (1-2 nmol) (Table 3).
# All activity assays were performed at acid pH.
# bovine serum albumin (BSA), sequence (P02769 25-607): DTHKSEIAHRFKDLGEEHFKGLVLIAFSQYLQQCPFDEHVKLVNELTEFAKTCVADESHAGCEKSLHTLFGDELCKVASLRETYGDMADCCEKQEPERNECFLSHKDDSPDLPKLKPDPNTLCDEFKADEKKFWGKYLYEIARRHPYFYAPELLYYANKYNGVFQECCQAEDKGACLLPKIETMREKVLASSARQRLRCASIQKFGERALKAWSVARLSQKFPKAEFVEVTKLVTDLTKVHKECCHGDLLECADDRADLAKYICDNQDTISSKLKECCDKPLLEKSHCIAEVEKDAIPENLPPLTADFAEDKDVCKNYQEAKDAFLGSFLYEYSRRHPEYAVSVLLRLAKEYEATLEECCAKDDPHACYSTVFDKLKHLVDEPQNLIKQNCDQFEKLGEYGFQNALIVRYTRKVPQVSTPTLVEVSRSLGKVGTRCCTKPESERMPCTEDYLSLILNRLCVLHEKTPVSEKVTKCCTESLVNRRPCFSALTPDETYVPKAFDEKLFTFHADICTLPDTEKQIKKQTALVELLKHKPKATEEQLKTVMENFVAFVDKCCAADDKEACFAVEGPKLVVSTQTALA
substance,measurement,setting,value
Biotin-Ttds-LREIIEAMLKAYQQKLFVTHTVDE [helix 5 peptide],interaction with albumin (BSA),[1],no interaction
same,enzymatic activity of endogenous and overexpressed GC in cell lysates,[2],could also be increased
same,co-precipitation of endogenous GC from cellular lysates,[3],specifically co-precipitated
same,interaction with recombinant α-mannosidase (LAMAN),[4],no interaction
same,effect on enzymatic activity of recombinant LAMAN,[5],No effect
